In patent US20060281763A1, “Carboxamide inhibitors of TGFbeta” (priority 2005, published 2006):

These compounds were tested against T1, TGFβ R1 (Homo sapiens, UniProt P36897) (assay: TGFβ R1 autophosphorylation protocol (33P-ATP, phosphocellulose filter plate)). Settings: 10 uM ATP, 170 nM TGFβ R1, 20 minutes at room temperature, read-out: IC50 for Kinase Inhibition.
T1 sequence (P36897 34-503): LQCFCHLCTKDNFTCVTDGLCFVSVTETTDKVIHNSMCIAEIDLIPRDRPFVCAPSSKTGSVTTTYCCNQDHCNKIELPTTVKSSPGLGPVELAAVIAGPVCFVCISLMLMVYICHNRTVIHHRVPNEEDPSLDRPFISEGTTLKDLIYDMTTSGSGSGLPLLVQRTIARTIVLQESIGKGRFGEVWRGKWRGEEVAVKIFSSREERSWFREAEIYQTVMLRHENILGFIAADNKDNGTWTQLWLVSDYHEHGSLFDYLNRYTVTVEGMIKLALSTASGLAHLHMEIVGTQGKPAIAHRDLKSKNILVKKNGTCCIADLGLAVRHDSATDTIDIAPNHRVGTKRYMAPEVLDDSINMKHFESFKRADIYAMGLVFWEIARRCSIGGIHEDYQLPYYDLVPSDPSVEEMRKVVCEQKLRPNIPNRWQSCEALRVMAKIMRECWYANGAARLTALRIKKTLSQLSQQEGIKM
Assay type: biochemical
Summary of the method: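 Incorporation of 33P from γ-33P-ATP (10 uM ATP final) into the kinase itself (170 nM) measured by phosphocellulose capture and scintillation counting. Incubation 20 min at room temperature in 20 mM MOPS pH 7 with […]; final DMSO ≤1%.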

Row | IC50 [nM] | SMILES
1 | 10 | CC(C)c1cnc(-c2cc(Cl)ccc2F)nc1Nc1ccncc1C(=O)NC1(CO)CC1 [Compound 150, 4-[2-(5-Chloro-2-fluoro-phenyl)-5-isopropyl-pyrimidin-4-ylamino]-N-(1-hydroxymethyl-cyclopropyl)-nicotinamide]
2 | 4 | COc1cnc(-c2cc(Cl)ccc2F)nc1Nc1ccncc1C(=O)NCCNCCC1O[C@H](CO)[C@@H](O)[C@H](O)[C@@H]1O (stereo partly shown) [Compound 151]
3 | 28 | COc1cnc(-c2cc(Cl)ccc2F)nc1Nc1ccncc1C(=O)NC1CCN(CCC2O[C@H](CO)[C@@H](O)[C@H](O)[C@@H]2O)CC1 (stereo partly shown) [Compound 152, 4-[2-(5-Chloro-2-fluoro-phenyl)-5-methoxy-pyrimidin-4-ylamino]-N-{1-[2-(3,4,5-trihydroxy-6-hydroxymethyl-tetrahydro-pyran-2-yl)-ethyl]-piperidin-4-yl}-nicotinamide]
4 | 19 | COc1cnc(-c2cc(Cl)ccc2F)nc1Nc1ccncc1C(=O)NCCCN(CCC1O[C@H](CO)[C@@H](O)[C@H](O)[C@@H]1O)C(C)C (stereo partly shown) [Compound 153, 4-[2-(5-Chloro-2-fluoro-phenyl)-5-methoxy-pyrimidin-4-ylamino]-N-(3-{isopropyl-[2-(3,4,5-trihydroxy-6-hydroxymethyl-tetrahydro-pyran-2-yl)-ethyl]-amino}-propyl)-nicotinamide]
5 | 10 | COc1cnc(-c2cc(Cl)ccc2F)nc1Nc1ccncc1C(=O)NCCCNCCC1O[C@H](CO)[C@@H](O)[C@H](O)[C@@H]1O (stereo partly shown) [Compound 154, 4-[2-(5-Chloro-2-fluoro-phenyl)-5-methoxy-pyrimidin-4-ylamino]-N-{3-[2-(3,4,5-trihydroxy-6-hydroxymethyl-tetrahydro-pyran-2-yl)-ethylamino]-propyl}-nicotinamide]
6 | 8 | COc1cnc(-c2cc(Cl)ccc2F)nc1Nc1ccncc1C(=O)NCCCN1CC[C@@H](F)C1 [Compound 155, 4-[2-(5-Chloro-2-fluoro-phenyl)-5-methoxy-pyrimidin-4-ylamino]-N-[3-(3-fluoro-pyrrolidin-1-yl)-propyl]-nicotinamide]
7 | 5 | COc1cnc(-c2cc(Cl)ccc2F)nc1Nc1ccncc1C(=O)NCCNCCOC1O[C@H](CO)[C@H](O)[C@H](O)[C@H]1O (stereo partly shown) [Compound 158]
8 | 58 | COc1cnc(-c2cc(Cl)ccc2F)nc1Nc1ccncc1C(=O)NCCNC(=O)COC1O[C@H](CO)[C@H](O)[C@H](O)[C@H]1O (stereo partly shown) [Compound 159, 4-[2-(5-Chloro-2-fluoro-phenyl)-5-methoxy-pyrimidin-4-ylamino]-N-{2-[2-(3,4,5-trihydroxy-6-hydroxymethyl-tetrahydro-pyran-2-yloxy)-acetylamino]-ethyl}-nicotinamide]

Row | SMILES | IC50 [nM]
9 | COc1cnc(-c2cc(Cl)ccc2F)nc1Nc1ccncc1C(=O)NCCNCCOC1O[C@H](COC(C)=O)[C@H](OC(C)=O)[C@H](OC(C)=O)[C@H]1OC(C)=O (stereo partly shown) [Compound 157, Acetic acid 3,4,5-triacetoxy-6-{2-[2-[{4-[2-(5-chloro-2-fluoro-phenyl)-5-methoxy-pyrimidin-4-ylamino]-pyridine-3-carbonyl}amino)-ethylamino]-ethoxy}-tetrahydro-pyran-2-ylmethyl-ester] | 25

Same assay, conditions: 10 uM ATP, 170 nM TGFβ R1, room temperature 20 minutes, read-out: IC50 for Kinase Inhibition

Row | IC50 [nM] | SMILES
10 | 9 | COc1cnc(-c2cc(Cl)ccc2F)nc1Nc1ccncc1C(=O)NC1CC1CO (stereo not shown) [Compound 160, 4-[2-(5-Chloro-2-fluoro-phenyl)-5-methoxy-pyrimidin-4-ylamino]-N-(2-hydroxymethyl-cyclopropyl)-nicotinamide]
11 | 4 | CC(C)c1cnc(-c2cc(Cl)ccc2F)nc1Nc1ccncc1C(=O)NCCCN1CCCC1 [Compound 161, 4-[2-(5-Chloro-2-fluoro-phenyl)-5-isopropyl-pyrimidin-4-ylamino]-N-(3-pyrrolidin-1-yl-propyl)-nicotinamide]
12 | 42 | COc1cnc(-c2cc(Cl)ccc2F)nc1Nc1ccncc1C(=O)NC1(CO)CC1 [Compound 162, 4-[2-(5-Chloro-2-fluoro-phenyl)-5-methoxy-pyrimidin-4-ylamino]-N-(1-hydroxymethyl-cyclopropyl)-nicotinamide]
13 | 33 | COc1cnc(-c2cc(Cl)ccc2F)nc1Nc1ccncc1C(=O)NCCCOCC(O)CO (stereo not shown) [Compound 163, 4-[2-(5-Chloro-2-fluoro-phenyl)-5-methoxy-pyrimidin-4-ylamino]-N-[3-(2,3-dihydroxy-propoxy)-propyl]-nicotinamide]
14 | 2 | CC(C)c1cnc(-c2cc(Cl)ccc2F)nc1Nc1ccncc1C(=O)NCCCN1CCC[C@H]1CO [Compound 164, 4-[2-(5-Chloro-2-fluoro-phenyl)-5-isopropyl-pyrimidin-4-ylamino]-N-[3-(2-hydroxymethyl-pyrrolidin-1-yl)-propyl]-nicotinamide]
15 | 27 | CC(C)(O)CNC(=O)c1cnccc1Nc1nc(-c2cc(Cl)ccc2F)ncc1C1CC1 [Compound 165]
16 | 5 | COc1cnc(-c2cc(Cl)ccc2F)nc1Nc1ccncc1C(=O)NCCCN1CCC[C@@H]1C(N)=O [Compound 166, N-[3-(2-Carbamoyl-pyrrolidin-1-yl)-propyl]-4-[2-(5-chloro-2-fluoro-phenyl)-5-methoxy-pyrimidin-4-ylamino]-nicotinamide]
17 | 28 | CCNC(=O)[C@@H]1CCCN1CCCNC(=O)c1cnccc1Nc1nc(-c2cc(Cl)ccc2F)ncc1OC [Compound 167, 4-[2-(5-Chloro-2-fluoro-phenyl)-5-methoxy-pyrimidin-4-ylamino]-N-[3-(2-ethylcarbamoyl-pyrrolidin-1-yl)-propyl]-nicotinamide]
18 | 24 | COc1cnc(-c2cc(Cl)ccc2F)nc1Nc1ccncc1C(=O)NCC(C)=O [Compound 168, 4-[2-(5-Chloro-2-fluoro-phenyl)-5-methoxy-pyrimidin-4-ylamino]-N-(2-oxo-propyl)-nicotinamide]
19 | 3 | CC(=O)CNC(=O)c1cnccc1Nc1nc(-c2cc(Cl)ccc2F)ncc1C(C)C [Compound 169, 4-[2-(5-Chloro-2-fluoro-phenyl)-5-isopropyl-pyrimidin-4-ylamino]-N-(2-oxo-propyl)-nicatinamide]
20 | 6 | COc1cnc(-c2cc(Cl)ccc2F)nc1Nc1ccncc1C(=O)NCCNCC[C@@H]1OC[C@@H](O)[C@H](O)[C@H]1O [Compound 170, 4-[2-(5-Chloro-2-fluoro-phenyl)-5-methoxy-pyrimidin-4-ylamino]-N-{2-[2-(3,4,5-trihydroxy-tetrahydro-pyran-2-yl)-ethylamino]-ethyl}-nicotinamide]
21 | 5 | CC(C)c1cnc(-c2cc(Cl)ccc2F)nc1Nc1ccncc1C(=O)NCCCN1CCC[C@H]1C(=O)N(C)C [Compound 171, 4-[2-(5-Chloro-2-fluoro-phenyl)-5-isopropyl-pyrimidin-4-ylamino]-N-[3-(2-dimethylcarbamoyl-pyrrolidin-1-yl)-propyl]-nicotinamide]
22 | 5 | CC(C)c1cnc(-c2cc(Cl)ccc2F)nc1Nc1ccncc1C(=O)NC1CC1CO (stereo not shown) [Compound 172, 4-[2-(5-Chloro-2-fluoro-phenyl)-5-isopropyl-pyrimidin-4-ylamino]-N-(2-hydroxymethyl-cyclopropyl)-nicotinamide]
23 | 6 | COc1cnc(-c2cc(Cl)ccc2F)nc1Nc1ccncc1C(=O)NCCNCC[C@H]1C[C@H](O)[C@@H](CO)O1 [Compound 173, 4-[2-(5-Chloro-2-fluoro-phenyl)-5-methoxy-pyrimidin-4-ylamino]-N-{2-[2-(4-hydroxy-5-hydroxymethyl-tetrahydro-furan-2-yl)-ethylamino]-ethyl}-nicotinamide]
24 | 1160 | COc1cnc(-c2cc(Cl)ccc2F)nc1Nc1ccncc1C(=O)N1CC[C@@H](N)C1 [Compound 174, (3-Amino-pyrrolidin-1-yl)-{4-[2-(5-chloro-2-fluoro-phenyl)-5-methoxy-pyrimidin-4-ylamino]-pyridin-3-yl}-methanone]
25 | 31 | COC(=O)C1CCCN1CCCNC(=O)c1cnccc1Nc1nc(-c2cc(Cl)ccc2F)ncc1OC (stereo not shown) [Compound 175, 1-[3-({4-[2-(5-Chloro-2-fluoro-phenyl)-5-methoxy-pyrimidin-4-ylamino]-pyridine-3-carbonyl}-amino)-propyl]-pyrrolidine-2-carboxylic acid methyl ester]
26 | 5 | COc1cnc(-c2cc(Cl)ccc2F)nc1Nc1ccncc1C(=O)NCCNCC[C@@H]1O[C@H](CO)[C@@H](O)[C@H]1O [Compound 176, 4-[2-(5-Chloro-2-fluoro-phenyl)-5-methoxy-pyrimidin-4-ylamino]-N-{2-[2-(3,4-dihydroxy-5-hydroxymethyl-tetrahydro-furan-2-yl)-ethylamino]-ethyl}-nicotinamide]
27 | 11 | CNC(=O)[C@@H]1CCCN1CCCNC(=O)c1cnccc1Nc1nc(-c2cc(Cl)ccc2F)ncc1C(C)C [Compound 177, 4-[2-(5-Chloro-2-fluoro-phenyl)-5-isopropyl-pyrimidin-4-ylamino]-N-[3-(2-methylcarbamoyl-pyrrolidin-1-yl)-propyl]-nicotinamide]
28 | 3 | CC(C)c1cnc(-c2cc(Cl)ccc2F)nc1Nc1ccncc1C(=O)NC1CCN(C)CC1 [Compound 178, 4-[2-(5-Chloro-2-fluoro-phenyl)-5-isopropyl-pyrimidin-4-ylamino]-N-(1-methyl-piperidin-4-yl)-nicotinamide]
